Where two headings read alike, the source gives them in different places. Residues, ends and D or L forms follow the SMILES beside them.
Experiments:
[1] = molecular target: T1, p_H-CD81 (human CD81 peptide) (Homo sapiens, UniProt P60033); assay: SPR binding to immobilized human CD81 peptide; details: for Kd: Biacore T200, CM-5 chip, p_H-CD81 immobilized (~1000 RU), flow 30 µL/min 2 min, steady-state isotherm, monovalent model, average of three measurements ± standard deviation; for SPR response / binding (in words): various concentrations over immobilized human CD81 peptide
T1 construct: ^167[…]^188; purchased GeneMark (GMbiolab Co., Ltd., Taiwan); host or cells: chemical synthesis
Text: (§1) Based on the in silico analysis, peptides were designed for experimental validations of the binding site predictions. Four peptides (p_E2-site1, p_E2-site2, p_H-CD81 and p_R-CD81) designed according to the ZDOCK program and MM/PBSA binding free energy calculations were chemically synthesized and purchased from GeneMark (GMbiolab Co., Ltd., Taiwan). The human and rat CD81 peptides, p_H-CD81 and p_R-CD81, and the HCV E2 peptides, p_E2-site1 and p_E2-site2, were derived from the results of molecular docking between ligand E2 and receptor CD81. Control and HCV E2 mutant peptides were also synthesized (S1 Table) for the SPR and cell based binding measurements to rule out the possible non-specific bindings in the investigations. The HCV E2 mutant peptides were designed based on the mutation studies.
(§2) SPR experiments were conducted to measure the binding efficiency of the designed ligand and receptor peptides. The SPR measurements were performed using a Biacore T200 workstation (GE Healthcare, USA). Peptides p_H-CD81 and p_R-CD81 were diluted to a concentration of 7.5 μM in a 10 mM sodium acetate buffer at pH 4.0 and immobilized onto a CM-5 sensor chip using amine coupling (EDC-NHS) for 5 min at a flow speed of 5 μL/min. Approximately 1000 response units (RU) of p_H-CD81 and p_R-CD81 were immobilized on the chip. In this study, data on the kinetics and affinity of ligand-receptor binding were obtained by flowing several different concentrations of the p_E2-site1 and p_E2-site2 over the chip sequentially at a flow rate of 30 µL/min for 2 min. The response was measured at two time points, 0 and 120 sec, to obtain information on the rate of CD81 peptides association with and dissociation from the p-E2-site1 and p-E2-site2 peptides. Equilibrium binding curves were generated and fitted using a monovalent binding model for each peptide to determine the KD of the binding of E2 peptides (p_E2-site1 and p_E2-site2) with receptor CD81 peptides (p_H-CD81 and p_R-CD81).

[2] = molecular target: T2, p_R-CD81 (rat CD81 peptide) (Rattus norvegicus, UniProt Q62745); assay: SPR binding to immobilized rat CD81 peptide; details: for Kd: steady-state isotherm; for SPR response / binding (in words): various concentrations over immobilized rat CD81 peptide
T2 construct: ^167[…]^188; purchased GeneMark (GMbiolab Co., Ltd., Taiwan); host or cells: chemical synthesis
Text: as §1, §2

p_R-CD81 = molecular target: T3, p_R-CD81 (rat); assay: SPR; Biacore T200; p_H-CD81 or p_R-CD81 (about 1000 RU) immobilised on a CM-5 chip by amine coupling; E2 peptides flowed over at several concentrations, 30 µL/min for 2 min; equilibrium binding curves fitted with a monovalent binding model; details: both partners purified
T3 construct: rat CD81, head domain of the large extracellular loop, residues 167-188; Immobilised on a CM-5 chip by amine coupling; also called rat CD81 peptide; receptor peptide from the head domain region of rat CD81; source: synthetic peptide, bought: GeneMark (GMbiolab Co., Ltd., Taiwan)
T3 peptide: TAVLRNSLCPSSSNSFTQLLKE

p_H-CD81 = molecular target: T4, p_H-CD81 (human); assay: as above; details: both partners purified
T4 construct: human CD81, head domain of the large extracellular loop, residues 167-188; Immobilised on a CM-5 chip by amine coupling; also called human CD81 peptide; receptor peptide from the head domain region of human CD81; source: synthetic peptide, bought: GeneMark (GMbiolab Co., Ltd., Taiwan)
T4 peptide: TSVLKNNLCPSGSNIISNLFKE

CC[C@H](C)[C@H](N)C(=O)N[C@@H](CC(N)=O)C(=O)N[C@@H](CO)C(=O)N[C@H](C(=O)N[C@@H](C)C(=O)N[C@@H](CC(C)C)C(=O)N[C@@H](CC(N)=O)C(=O)N[C@@H](CS)C(=O)N[C@@H](CC(N)=O)C(=O)N[C@@H](CCC(=O)O)C(=O)N[C@@H](CO)C(=O)N[C@@H](CC(C)C)C(=O)N[C@@H](CC(N)=O)C(=O)N[C@H](C(=O)NCC(=O)N[C@@H](Cc1c[nH]c2ccccc12)C(=O)N[C@@H](CC(C)C)C(=O)N[C@@H](C)C(=O)NCC(=O)N[C@@H](CC(C)C)C(=O)N[C@@H](Cc1ccccc1)C(=O)N[C@@H](Cc1ccc(O)cc1)C(=O)N[C@@H](CCC(N)=O)C(=O)O)[C@@H](C)O)[C@@H](C)O [p_E2-site1] (H-INSTALNCNESLNTGWLAGLFYQ-OH) was tested, and the Kd [1] was 7.96 ± 1.7 µM and the Kd ([2]; Biacore T200, CM-5 chip, p_R-CD81 immobilized (~1000 RU), flow 30 µL/min 2 min, monovalent model, average of three measurements ± standard deviation, read-out: KD) was 13.8 ± 2.46 µM.

CC(C)[C@H](NC(=O)[C@H](CC(=O)O)NC(=O)[C@@H](NC(=O)[C@H](CC(=O)O)NC(=O)[C@H](CC(N)=O)NC(=O)[C@H](C)NC(=O)CNC(=O)[C@H](Cc1c[nH]c2ccccc12)NC(=O)[C@H](CO)NC(=O)[C@H](Cc1ccc(O)cc1)NC(=O)[C@@H](NC(=O)[C@@H]1CCCN1C(=O)[C@H](C)NC(=O)CNC(=O)[C@H](CO)NC(=O)[C@@H](N)CCCNC(=N)N)[C@@H](C)O)[C@@H](C)O)C(=O)N[C@@H](Cc1ccccc1)C(=O)O [p_E2-site2] (H-RSGAPTYSWGANDTDVF-OH) showed a Kd [1] of 1.07 ± 0.09 µM and a Kd ([2]; p_R-CD81 immobilized, value printed in Fig 6 plot, read-out: KD (printed in the picture, Fig 6)) of 6.4 µM.

With “CPLNGSTVYGHLRHCLSCSGTMVKF [p_random-25, control (random) peptide]” the “SPR response / binding (in words)” value [1] was “not significantly increased” and the “SPR response / binding (in words)” value [2] was “not significantly increased”.

In the case of “SENHLRHCLSCSKCRKEM [p_random-18, control (random) peptide]”, the “SPR response / binding (in words)” value [1] is reported as “not significantly increased” and the “SPR response / binding (in words)” value [2] is reported as “not significantly increased”.

B1: p_E2-site1 (peptide)
peptide: INSTALNCNESLNTGWLAGLFYQ
notes: hepatitis C virus envelope glycoprotein E2, residues 422-444 of the polyprotein; also called E2-site1 peptide; E2-s1; source: synthetic peptide, bought: GeneMark (GMbiolab Co., Ltd., Taiwan)
B1 gave a Kd (p_R-CD81) of 13.8 µM and a Kd (p_H-CD81) of 7.96 µM.

B2: p_E2-site2 (peptide)
peptide: RSGAPTYSWGANDTDVF
notes: hepatitis C virus envelope glycoprotein E2, residues 521-537 of the polyprotein; also called E2-site2 peptide; E2-s2; source: synthetic peptide, bought: GeneMark (GMbiolab Co., Ltd., Taiwan)
B2 was tested, and the Kd (p_R-CD81) was 6.38 µM and the Kd (p_H-CD81) was 1.07 µM.
